# Assay results reported in patent US8008329B2 (Dong Wha Pharmaceutical Co., Ltd., priority 2008, dated 2011).
# Marks after values point to notes of the source that are not given here.
# System: osteoclast differentiation
# Test: Osteoclast differentiation in co-culture of mouse bone marrow cells and ST2 cells, TRAP staining (Examples 8-9)
# Format: cell-based
# Conditions: for % number of osteoclast (vs. solvent control group): 0.1 μM each, day 7; for activity at 0.1 µM: Mus musculus, Osteoclast, 168 h, Individual treatment (compounds), day 7, read-out: % number of osteoclast (vs. solvent control group)
# Outline: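 Bone marrow cells from 6-8-week male ddY mice were co-cultured with ST2 stromal cells under 10^−8 M vitamin D3 and 10^−8 M dexamethasone, with compounds at 0.1 μM final (0.1% DMSO control), refreshed on days 3 and 5. On day 7, TRAP-positive osteoclasts with ≥6 nuclei were counted and expressed as % of solvent control (n=4).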
# [1] = Combination treatment (alendronic acid + compounds)
# [2] = Combination treatment (risedronic acid + compounds)
Structure (SMILES),% number of osteoclast (vs. solvent control group) [1],% number of osteoclast (vs. solvent control group) [2],activity at 0.1 µM [%]
"CC(C)c1nc(-c2ccc(OCCCCCOc3ccc(C(=N)NO)cc3)cc2)c(CCNCCCn2ccnc2)s1 [Compound 244, N-hydroxy-4-[5-(4-{5-[2-(3-imidazol-1-yl-propylamino)-ethyl]-2-isopropyl-thiazol-4-yl}-phenoxy)-pentyloxy]-benzamidine]",19 ± 3.3^ab %,11 ± 1.7^ac %,46 ± 2.9
"Cc1nc(-c2ccc(OCCCCCOc3ccc(C(=N)NO)cc3)cc2)c(CCNC2CCCCC2)s1 [Compound 223, N-hydroxy-4-(5-{4-[5-(2-cyclohexylamino-ethyl)-2-methyl-thiazol-4-yl]-phenoxy}-pentyloxy)-benzamidine]",73 ± 8.2%,60 ± 12.6%,81 ± 3.8
"CC(C)c1nc(-c2ccc(OCCCCCOc3ccc(C(=N)NO)cc3)cc2)c(CCNCCN2CCOCC2)s1 [Compound 243, N-hydroxy-4-[5-(4-{2-isopropyl-5-[2-(2-morpholin-4-yl-ethylamino)-ethyl]-thiazol-4-yl}-phenoxy)-pentyloxy]-benzamidine]",24 ± 7.7^b %,12 ± 2.3^ac %,36 ± 4.9
"CCc1sc(N2CCCCC2)nc1-c1ccc(OCCCCCOc2ccc(C(=N)NO)cc2)cc1 [Compound 166, N-hydroxy-4-{5-[4-(5-ethyl-2-piperidino-1,3-thiazol-4-yl)phenoxy]pentyloxy}-benzamidine]",43 ± 9.4^ab %,35 ± 3.9^ac %,73 ± 4.4
"CCCN(CCC)CCc1sc(C2CCCCC2)nc1-c1ccc(OCCCCCOc2ccc(C(=N)NO)cc2)cc1 [Compound 251, N-hydroxy-4-(5-{4-[2-cyclohexyl-5-(2-dipropylamino-ethyl)-thiazol-4-yl]-phenoxy}-pentyloxy)-benzamidine]",20 ± 6.4^ab %,18 ± 4.4^ac %,45 ± 9.6
"Cc1nc(-c2ccc(OCCCCCOc3ccc(C(=N)NO)cc3)cc2)c(CCCl)s1 [Compound 42, N-hydroxy-4-{5-[4-(5-(2-chloro-ethyl)-2-methyl-1,3-thiazol-4-yl)phenoxy]pentyloxy}-benzamidine]",33 ± 1.9^ab %,32 ± 8.0^ac %,69 ± 11.4
"Cc1nc(-c2ccc(OCC=CCOc3ccc(C(=N)NO)cc3)cc2)c(C(C)C)s1 [Compound 184, N-hydroxy-4-{4-[4-(5-isopropyl-2-methyl-1,3-thiazol-4-yl)-phenoxy]-but-2-enyloxy}-benzamidine]",38 ± 3.7^ab %,38 ± 6.9^ac %,62 ± 4.6
"N=C(NO)c1ccc(OCCCCCOc2ccc(-c3nc(NC(=O)c4ccncc4)sc3CC3CCCC3)cc2)cc1 [Compound 112, N-hydroxy-4-{5-[4-(5-cyclopentylmethyl-2-(4-pyridylcarbonyl)amino-1,3-thiazol-4-yl)phenoxy]pentyloxy}-benzamidine]",35 ± 7.6^ab %,31 ± 8.0^ac %,77 ± 9.8
"N=C(NO)c1ccc(OCCCCCOc2ccc(-c3nc(C4CCCCC4)sc3CCNC3CC3)cc2)cc1 [Compound 252, N-hydroxy-4-(5-{4-[2-cyclohexyl-5-(2-cyclopropylamino-ethyl)-thiazol-4-yl]-phenoxy}-pentyloxy)-benzamidine]",33 ± 6.6^b %,19 ± 4.0^ac %,44 ± 2.7
"N=C(NO)c1ccc(OCCCCCOc2ccc(-c3nc(-c4cccnc4)sc3Cc3ccccc3)cc2)cc1 [Compound 41, N-hydroxy-4-{5-[4-(5-benzyl-2-pyridin-3-yl-1,3-thiazol-4-yl)phenoxy]pentyloxy}-benzamidine]",29 ± 5.0^b %,31 ± 2.6^c %,31 ± 9.4
